A value given as a limit tells only on which side of the number the result lay.

Data on one compound can be found in article PMC2678990, “Stilbene glycosides are natural product inhibitors of FGF-2-induced angiogenesis” (BMC Cell Biology, 2009).

Experiment [1] has as its system BAEC. Briefly: FGF-2-induced tube formation in Matrigel. Format: cell-based, bovine. The settings on record: Matrigel; for IC50: 24 h, FGF-2 25 ng/ml. The protocol: Cells (1.0 × 10^6/ml) were mixed with an equal volume of Matrigel (Becton -Dickinson, Oxford, UK; prepared according to the supplier's instructions) at 4°C. Aliquots (80 μl) were added to the wells of a 48-well plate and allowed to polymerise (1 h) then 500 μl of 15% FCS containing FGF-2 (25 ng/ml; or other growth factors), with or without test compounds was added. The cells were incubated for 24 h at 37°C then fixed in 4% paraformaldehyde (5 min), washed in cold ethanol and the plate air dried. Cells were stained with Geimsa (30 s), air dried and photographed. Ten random fields were selected and the number of closed tubes counted.

Experiment [2] concerns BAEC. Kind of experiment: FGF-2-induced proliferation. Format: cell-based, bovine. The settings on record: Bos taurus, FGF-2 25 ng/ml, 72 h, NS = inhibition less than 50%. Here is the method: (§1) Cells were seeded in triplicate at a concentration of 6.0 × 10^5/ml, in 2 ml of complete medium in 6-well plates. […] Growth factors, FGF-2 (25 ng/ml), EGF (75 ng/ml) and VEGF (10 ng/ml) and test compounds at different concentration were added and cells incubated for a further 72 h. Control wells were treated with 5 μl DMSO. Concentration ranges of test compounds and pre-incubation times were based on pilot studies. After 72 h, cells were washed in PBS, detached in 0.05%w/v trypsin in PBS, and counted on a Coulter counter (Coulter Electronics, Hialeah, FL) set to a threshold of 30 μm. Experiments were performed in triplicate and repeated at least twice.

The subject of experiment [3] is BAEC. Briefly: EGF-induced proliferation. In kind it is cell-based, bovine. The note with it: EGF 75 ng/ml, 72 h, NS = inhibition less than 50%. Here is the method: as §1
The test system of experiment [4] is BAEC. Kind of experiment: FGF-2-induced migration in wound healing model. Format: cell-based, bovine. The note with it: Bos taurus, FGF-2 25 ng/ml, 18 h. Here is the method: Cells (6 × 10^4/ml) were added to a Thermanox cover slip in a 24-well plate in complete medium and incubated for 24–48 h. When confluent, the medium was replaced with DMEM containing 0.1% FCS and incubated for a further 48 h. Cover slips were washed (PBS, × 3), wounded with a sterile razor to produce a straight edged cut and washed in PBS to remove dislodged cells. Cover slips were added to a fresh 24-well plate in 0.1% FCS and incubated with FGF-2 (or other growth factors) and a range of concentrations of test compounds for 18 h. Under these conditions, there was negligible proliferation but measurable migration. Slides were fixed in ethanol (100%), stained with methylene blue and photographed. For each slide, 10 fields of view (2 mm × 1.45 mm) were counted at random. Each experiment was performed in triplicate and at least twice.

Experiment [5] relates to BAEC. Briefly: Regression of established tubular networks. The note with it: Bos taurus, established FGF-2 tubular network, 24 h. Format: cell-based, bovine. Here is the method: Tube regression under the influence of the test compounds was also investigated. Cell suspensions were mixed with Matrigel supplemented with FGF-2 (25 ng/ml) in 15% FCS as described above.
In the next experiment the test system is phospho-ERK1/2 in BAEC. Briefly: Western blot of ERK1/2 phosphorylation. The note with it: BAEC; FGF-2 25 ng/ml; Western blot. In kind it is cell-based, bovine. Here is the method:
Figure 9 (A) Western blots of p-ERK-1 and -2 were performed on BAEC treated with compound 1 as described below. (B) The bar charts show relative protein expression compared to the control given an arbitrary value of 1.0. All experiments were performed at least twice and a representative example is shown. Lane 1 control, lane 2 FGF-2 (25 ng/ml), lane 3 compound 1 ([…]), lane 4 compound 1 (14.3 μM) + FGF-2, lane 5 compound 1 (28.6 μM), lane 6 compound 1 (28.6 μM) + FGF-2.
The method is described in detail elsewhere. In brief, cells were lysed in RIPA buffer, protein concentration determined using the Biorad assay, and approximately 20 μg aliquots separated by 12% SDS-PAGE, electroblotted onto nitrocellulose filters (Hoefer, San Francisco, Ca, USA), blocked overnight with 1% BSA in TBS-Tween and incubated for 4 h at RT with characterised antibodies to phosphor-ERK1/2 (AutogenBioclear, mouse monoclonal, 1:1000). α-Actin (Sigma, UK; 1:1000) was used as a loading control. Filters were washed in TBS-Tween and stained with antibodies to peroxidase-conjugated secondary antibody. Proteins were detected with the ECL system (Amersham, UK). Protein expression was estimated spectrophotometrically from band intensity. Results are semi-quantitative and given a numerical value compared to the weakest observed band assigned an arbitrary value of 1.0. […]

Experiment [6] deals with BAEC. Kind of experiment: VEGF-induced proliferation. Format: cell-based, bovine. The settings on record: 72 h, NS = inhibition less than 50%. The protocol:
as §1

The test system of experiment [7] is HDMEC. Briefly: FGF-2-induced proliferation. In kind it is cell-based. The note with it: Homo sapiens, FGF-2 25 ng/ml, 72 h. The protocol:
as §1

In experiment [8] the test system is BAEC. Kind of experiment: FGF-2 invasion in Matrigel. Format: cell-based, bovine. The settings on record: Bos taurus, FGF-2 25 ng/ml. The protocol: The effect of the test compounds on cell invasion was investigated using a Transwell Boyden chamber system coated with reconstituted growth factor-depleted Matrigel. […] Representative photomicrographs for the effect of compound 1 are shown (Figure 7B).
Figure 7 The effect of compounds 1 (AI) and 2 (AII) on BAEC invasion into a Matrigel layer was studied using the chemoinvasion assay described below. Cells (1.7 × 10^4) were added to the Matrigel coated upper Boyden chamber and the compounds with or without FGF-2 added to the lower chamber. Cell invasion was measured after 24 h and assessed as described below. […] Results are the mean of three experiments. (B) Representative photomicrographs are shown for the effect of compound 1 on BAEC (original magnification × 20).
The procedure described above was repeated and wells having a uniform network of tubes were used to assess invasion into a second layer of Matrigel. Matrigel (100 μl), with and without the test compounds was added to the cells and allowed to polymerise (1 h at 37°C). FCS (15%) was added and the cells incubated for 24–72 h when tube growth into the upper layer was measured as described above.

For experiment [9], the system named is HDMEC. Kind of experiment: FGF-2 invasion in Matrigel. Format: cell-based, human. The note with it: Homo sapiens, FGF-2 25 ng/ml.
In experiment [10] the test system is human dermal microvascular endothelial cells (HDMEC). Kind of experiment: Proliferation without growth factors (15% FBS). In kind it is cell-based. Here is the method:
Cells were seeded in triplicate at a concentration of 6.0 × 10^5/ml, in 2 ml of complete medium in 6-well plates. […] […] Control wells were treated with 5 μl DMSO. Concentration ranges of test compounds and pre-incubation times were based on pilot studies. After 72 h, cells were washed in PBS, detached in 0.05%w/v trypsin in PBS, and counted on a Coulter counter (Coulter Electronics, Hialeah, FL) set to a threshold of 30 μm. Experiments were performed in triplicate and repeated at least twice.

Take `COc1cc(C=Cc2ccc(O)cc2)cc(OC2OC(COC3OC(C)C(O)C(O)C3O)C(O)C(O)C2OC2OC(C)C(O)C(O)C2O)c1` (stereo not shown) [Compound 1]: the IC50 in the experiment on BAEC [1] (Bos taurus) is 11.1 ± 0.28 µM; with BAEC [1] it was 18.2 ± 0.65 µM; in the experiment on BAEC [2] it was 48.9 ± 0.4 µM; in the experiment on BAEC [3] (Bos taurus), greater than 71.5 µM; in the experiment with BAEC [4] it was 41.8 ± 0.95 µM; with BAEC [5], 40 ± 0.2 µM. Also, the IC50 is greater than 71.5 µM in the experiment on BAEC [6] (Bos taurus); 42 ± 0.93 µM with HDMEC [7]; 11.1 ± 0.28 µM in the experiment on BAEC [8]; 5.8 ± 0.18 µM in the experiment with HDMEC [9]; greater than 71.5 µM in [10] (Homo sapiens, Endothelial cell, NS = overall inhibition less than 50%). Also, in the experiment on BAEC [1] (without FGF-2), the “Effect on tube formation in the absence of FGF-2” value is on record as “no inhibitory effect”. In the experiment on BAEC [3], the “EGF-induced proliferation, IC50” value is listed as “no significant inhibitory effect”. Also, the “Inhibition of FGF-2-induced ERK1/2 phosphorylation” value in the experiment with phospho-ERK1/2 in BAEC is recorded as “inhibited”. In addition, the “VEGF-induced proliferation, IC50” value in the experiment on BAEC [6] is listed as “no significant inhibitory effect”. Also, the “Effect on growth in the absence of growth factors” value in experiment [10] (1.4–71.5 μM) was “no significant effect”.
